# From US10993436B2 (priority 2016, dated 2021)
# Like-named read-outs stand apart in the source and are kept apart here.
# Tested on: Fusarium graminearum
# Assay type: cell-based
# Details: enzyme disk 119 nM where (+) enzyme, 5 days
substance,measurement,setting,value
mancozeb,Reduction in F. graminearum growth relative to non-treated controls,Mancozeb 0.5 mg/l,6% cd
same,Reduction in F. graminearum growth relative to non-treated controls,Mancozeb 2 mg/l,1% d
same,Reduction in F. graminearum growth relative to non-treated controls,Mancozeb 5 mg/l,17% cd
same,Reduction in F. graminearum growth relative to non-treated controls,Mancozeb 10 mg/l,26% bcd
